Results: patent US11034672B1, “Tyrosine kinase inhibitor compositions, methods of making and methods of use” (Black Diamond Therapeutics, Inc., priority 2018, dated 2021)

What was measured:
HER2 S310F = experiment: Tumor pHER2/pERK AlphaLisa in mice bearing HER2 S310F BaF3 tumors (Examples 15-18); format: in vivo; settings: two day acute oral dosing, 15 mg/kg; at peak plasma levels
Method: (§1) Following the second dose, tumors were collected at 2 hours, 5 hours, 12 hours and 24 hours, and analyzed for both pHER2 activity and pERK activity via AlphaLisa. Plasma was also collected at these time points and analayzed for the presence of Compound No. 21 to determine pharmacokinetic profile. The tumor tissue was cut and homogenized using the Precellys Soft Tissue Homogenizing kit (KT03961-1-00.3.2) containing T-PER tissue protein extraction reagent (Thermo Scientific #78510), supplemented with Protease Inhibitor (Sigma P8340), and Phosphatase Inhibitors II and III (Sigma P5726 and P0044). Tissue samples were homogenized in the Precellys machine by spinning two times for one minute each. Sample tubes were centrifuged for 5 min at 15,000 rpm at 4° C. The supernatant was transferred to a fresh microtube and spun again for 5 minutes at 15,000 rpm at 4° C. Supernatant was then transferred to a fresh microtube and placed on ice. The protein concentration of the supernatant was measured using the BCA reagent Kit (Thermo Scientific #23225). Tumor tissue-derived lysates were analyzed for either HER2 activity or EGFR activity by detection of pHER2 (Tyr1221/1222) or pERK (Thr202/Tyr204) phosphosites, respectively, via AlphaLisa. Briefly, tumor Lysates were diluted to 0.5 ug/ul in 1× diluted SureFire Ultra Kit Lysis Buffer (5× supplied stock) supplemented with Protease Inhibitor (Sigma P8340) and Phosphatase Inhibitor II and III (Sigma P5726 and P0044). 10 ul of total tumor lysate was added per well in triplicate to a 384-well Opti-plate (Perkin Elmer #6007290). Activation Buffer was diluted 25-fold in combined Reaction Buffer 1 and Reaction Buffer 2, and acceptor beads were diluted 50-fold in the combined Reaction Buffers. 5 ul/well of the Acceptor bead:Reaction buffer mixture was added to each well.
as §1, with “No. 5” for “No. 21”, “Buffer (X” for “Buffer (5×”
To determine the ability of Compound No. 118 to inhibit tumor growth and induce tumor regression in vivo, a mouse tumor model containing the HER2 S310F mutation was used. Athymic nude mice from Charles River Labs bearing HER2 S310F BaF3 tumors were treated with two day acute oral dosing of Compound No. 118 at 15 mg/kg. […]

[1] = biological target: T1, EGFR-Exon 20 insertion NPH (EGFR-NPH) (Homo sapiens, UniProt P00533, DUP771-773); experiment: BaF3 panel Cell Titer Glo proliferation, EGFR-NPH (Example 3); format: cell-based; settings: BaF3 transformant, 72 hours, FIG. 21
T1 construct: expressed in transfected cells; host or cells: BaF3 (murine pro-B), retroviral pMXs-IRES-Blasticidin
T1 sequence (P00533 with tags, fused parts or gaps DUP771-773): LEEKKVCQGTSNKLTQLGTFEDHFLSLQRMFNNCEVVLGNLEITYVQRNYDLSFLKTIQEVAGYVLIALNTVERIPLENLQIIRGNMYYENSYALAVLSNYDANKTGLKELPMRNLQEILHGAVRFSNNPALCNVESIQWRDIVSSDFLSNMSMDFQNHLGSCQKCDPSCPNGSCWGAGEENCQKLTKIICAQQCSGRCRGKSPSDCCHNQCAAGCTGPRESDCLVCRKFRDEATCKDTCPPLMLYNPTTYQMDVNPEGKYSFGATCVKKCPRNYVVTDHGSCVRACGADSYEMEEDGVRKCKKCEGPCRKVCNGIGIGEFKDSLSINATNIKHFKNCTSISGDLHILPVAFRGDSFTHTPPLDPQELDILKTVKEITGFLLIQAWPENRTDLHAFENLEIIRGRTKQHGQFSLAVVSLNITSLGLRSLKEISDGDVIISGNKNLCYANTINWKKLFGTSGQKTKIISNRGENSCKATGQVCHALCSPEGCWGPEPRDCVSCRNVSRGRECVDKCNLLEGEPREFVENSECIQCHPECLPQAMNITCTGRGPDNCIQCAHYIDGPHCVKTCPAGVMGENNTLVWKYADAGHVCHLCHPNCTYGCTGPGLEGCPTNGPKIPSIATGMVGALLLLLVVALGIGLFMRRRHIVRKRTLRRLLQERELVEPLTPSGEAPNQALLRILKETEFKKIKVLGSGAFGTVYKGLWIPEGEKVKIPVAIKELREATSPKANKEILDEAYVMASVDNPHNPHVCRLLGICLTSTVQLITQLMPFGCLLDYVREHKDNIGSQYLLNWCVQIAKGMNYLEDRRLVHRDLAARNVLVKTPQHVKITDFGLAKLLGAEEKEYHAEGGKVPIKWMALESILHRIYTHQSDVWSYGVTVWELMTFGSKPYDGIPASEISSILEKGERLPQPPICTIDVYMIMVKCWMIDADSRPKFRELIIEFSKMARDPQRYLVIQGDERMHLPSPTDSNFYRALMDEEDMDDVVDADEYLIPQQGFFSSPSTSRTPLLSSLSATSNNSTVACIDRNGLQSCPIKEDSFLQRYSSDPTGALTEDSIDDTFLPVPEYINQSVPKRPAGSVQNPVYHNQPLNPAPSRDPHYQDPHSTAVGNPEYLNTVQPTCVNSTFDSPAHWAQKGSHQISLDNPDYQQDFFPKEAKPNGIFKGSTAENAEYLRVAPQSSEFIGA
Method: To determine the ability of Compound No. 6 to target wild type HER2, wild type EGFR, and relevant mutants of each, a panel of BaF3 cell lines and the A431 cell line were dosed and assessed in cell proliferation assays. The BaF3 parental cell line is normally dependent on IL-3 for proliferation, but when transformed with active tyrosine kinase can grow in the absence of IL-3. However, when transformed kinase activity is inhibited by a targeted small molecule the associated proliferation is reduced in proportion to the extent of inhibition. A panel of BaF3 cell lines were generated by transforming the parental BaF3 cell line with wild type HER2 (HER2-WT), HER2 S310F (HER2-S310F), HER2 Exon 20 insertion YVMA (HER2-YVMA), EGFR-Exon 20 insertion ASV (EGFR-ASV), EGFR-Exon 20 insertion SVD (EGFR-SVD), or EGFR-Exon 20 insertion NPH (EGFR-NPH). The A431 […] cell line, which natively expresses WT-EGFR, was used to assess WT-EGFR inhibition. […] Proliferation was assessed using the Cell Titer Glo cell proliferation kit (Promega # G7573). […] Cell Titer Glo was added to plated cells at 15 ul per well, the plate was shaken for 20 minutes at room temperature, and luminescence was measured using Victor X3 Multimode plate reader (Perkin Elmer), Cell Titer Glo readings were taken following 72 hours (T72) after addition of Compound No. 6. […]

CC#CC(=O)Nc1cc2c(Nc3ccc(OCc4ccccn4)c(Cl)c3)ncnc2cc1OCCN1CCOCC1 [compound 5]
pERK1/2 (Thr202/Tyr204) in tumors (HER2 S310F): reduction | pHER2 (Tyr1221/1222) in tumors (HER2 S310F): reduction

C=CC(=O)Nc1cc2c(Nc3cc(Cl)c(OCc4cccc(F)c4)cc3F)ncnc2cc1OCCN1CCOCC1 [compound 6]
IC50 [1]: < 100 nM

C=CC(=O)Nc1cc2c(Nc3ccc(OCc4ccccn4)c(Cl)c3)ncnc2cc1OCCCN1CCOCC1 [compound 21]
pERK1/2 (Thr202/Tyr204) in tumors (HER2 S310F): near complete reduction | pHER2 (Tyr1221/1222) in tumors (HER2 S310F): near complete reduction
